# Laboratory results published in paper PMC4620497 (Scientific Reports, 2015).
# How the values were obtained:
# [1] = tested on: FLT3; conditions: previously identified FLT3 inhibitor; read-out: IC50 against FLT3; cited from earlier work
# [2] = molecular target: T1, PAK2 (Homo sapiens, UniProt Q13177); design: method as in earlier work; conditions: Table S1; cited from earlier work
# T1 construct: purchased DiscoveRx KINOMEscan (Ambit Biosciences)
# [3] = molecular target: ERN1 (Homo sapiens, UniProt O75460); design: method as in earlier work; conditions: Table S1; cited from earlier work
# [4] = molecular target: T2, p38-alpha (Homo sapiens, UniProt Q16539); experiment: KINOMEscan panel screen; format: binding; conditions: read-out: Percent Control(%)
# T2 construct: purchased DiscoveRx KINOMEscan (Ambit Biosciences)
# T2 sequence (Q16539 whole entry): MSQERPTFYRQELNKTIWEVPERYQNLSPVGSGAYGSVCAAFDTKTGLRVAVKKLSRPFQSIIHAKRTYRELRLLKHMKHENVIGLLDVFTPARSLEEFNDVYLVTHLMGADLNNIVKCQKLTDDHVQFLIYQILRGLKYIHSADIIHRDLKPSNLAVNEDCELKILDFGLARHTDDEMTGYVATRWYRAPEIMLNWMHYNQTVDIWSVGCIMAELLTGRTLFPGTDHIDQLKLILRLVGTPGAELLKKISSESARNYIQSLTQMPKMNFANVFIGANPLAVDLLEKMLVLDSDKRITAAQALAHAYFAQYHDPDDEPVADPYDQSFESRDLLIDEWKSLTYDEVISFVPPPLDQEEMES
# [5] = molecular target: T3, SIK (Homo sapiens, UniProt P57059); experiment: KINOMEscan panel screen; format: binding; conditions: read-out: Percent Control(%)
# T3 construct: purchased DiscoveRx KINOMEscan (Ambit Biosciences)
# [6] = molecular target: T4, MET(M1250T) (Homo sapiens, UniProt P08581, M1250T); experiment: KINOMEscan panel screen; format: binding; conditions: read-out: Percent Control(%)
# T4 construct: purchased DiscoveRx KINOMEscan (Ambit Biosciences)
# [7] = molecular target: T5, PAK3 (Homo sapiens, UniProt O75914); experiment: KINOMEscan panel screen; format: binding; conditions: read-out: Percent Control(%)
# T5 construct: purchased DiscoveRx KINOMEscan (Ambit Biosciences)
# T5 sequence (O75914 whole entry): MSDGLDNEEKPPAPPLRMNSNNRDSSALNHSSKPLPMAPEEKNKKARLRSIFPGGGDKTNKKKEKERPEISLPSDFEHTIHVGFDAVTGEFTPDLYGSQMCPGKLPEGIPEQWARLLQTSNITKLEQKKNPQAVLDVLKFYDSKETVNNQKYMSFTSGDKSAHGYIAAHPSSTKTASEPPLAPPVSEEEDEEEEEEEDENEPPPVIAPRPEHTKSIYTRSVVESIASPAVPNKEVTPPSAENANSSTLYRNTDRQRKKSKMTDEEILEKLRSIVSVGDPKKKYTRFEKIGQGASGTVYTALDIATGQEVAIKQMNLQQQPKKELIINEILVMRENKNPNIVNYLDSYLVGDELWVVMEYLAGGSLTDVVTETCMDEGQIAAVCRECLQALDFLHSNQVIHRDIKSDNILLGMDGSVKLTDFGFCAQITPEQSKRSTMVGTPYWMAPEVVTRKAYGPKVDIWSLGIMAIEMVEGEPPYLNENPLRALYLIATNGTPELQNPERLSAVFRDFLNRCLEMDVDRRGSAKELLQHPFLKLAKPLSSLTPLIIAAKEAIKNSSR
# [8] = tested on: B16; experiment: MTT cell viability assay; conditions: Mus musculus, B16, 72 h
# [9] = molecular target: T6, KIT(L576P) (Homo sapiens, UniProt P10721, L576P); experiment: KINOMEscan panel screen; format: binding; conditions: read-out: Percent Control(%)
# T6 construct: purchased DiscoveRx KINOMEscan (Ambit Biosciences)
# [10] = molecular target: T7, RET(V804M) (Homo sapiens, UniProt P07949, V804M); experiment: KINOMEscan panel screen; format: binding; conditions: read-out: Percent Control(%)
# T7 construct: purchased DiscoveRx KINOMEscan (Ambit Biosciences)
# [11] = molecular target: T8, FGFR4 (Homo sapiens, UniProt P22455); experiment: KINOMEscan panel screen; format: binding; conditions: read-out: Percent Control(%)
# T8 construct: purchased DiscoveRx KINOMEscan (Ambit Biosciences)
# [12] = molecular target: T9, CDC2L1 (Homo sapiens, UniProt P21127); experiment: KINOMEscan panel screen; format: binding; conditions: read-out: Percent Control(%)
# T9 construct: purchased DiscoveRx KINOMEscan (Ambit Biosciences)
# T9 sequence (P21127 whole entry): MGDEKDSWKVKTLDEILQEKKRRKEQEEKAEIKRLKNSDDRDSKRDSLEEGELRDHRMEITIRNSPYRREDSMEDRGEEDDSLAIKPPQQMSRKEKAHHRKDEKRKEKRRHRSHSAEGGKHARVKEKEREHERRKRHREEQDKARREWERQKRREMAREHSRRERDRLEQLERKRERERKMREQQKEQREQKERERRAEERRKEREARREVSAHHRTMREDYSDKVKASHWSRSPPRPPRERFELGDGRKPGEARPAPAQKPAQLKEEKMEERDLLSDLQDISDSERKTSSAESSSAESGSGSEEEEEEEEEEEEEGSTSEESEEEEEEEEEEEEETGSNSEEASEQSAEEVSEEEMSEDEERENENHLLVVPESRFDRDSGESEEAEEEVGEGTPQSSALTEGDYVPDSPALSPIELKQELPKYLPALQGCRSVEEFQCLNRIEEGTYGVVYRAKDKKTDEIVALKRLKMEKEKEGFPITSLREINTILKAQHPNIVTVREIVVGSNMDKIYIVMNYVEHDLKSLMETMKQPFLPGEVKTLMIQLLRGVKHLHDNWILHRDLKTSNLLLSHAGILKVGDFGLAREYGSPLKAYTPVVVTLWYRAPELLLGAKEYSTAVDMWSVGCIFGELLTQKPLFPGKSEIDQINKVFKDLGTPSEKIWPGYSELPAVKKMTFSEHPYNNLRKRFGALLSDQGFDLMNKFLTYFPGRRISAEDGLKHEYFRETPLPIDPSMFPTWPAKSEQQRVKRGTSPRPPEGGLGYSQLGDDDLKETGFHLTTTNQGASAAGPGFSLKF
# [13] = molecular target: FLT3-ITD (Homo sapiens, UniProt P36888, ITD); experiment: biochemical; format: binding
# [14] = tested on: WM2664; experiment: MTT cell viability assay; conditions: Homo sapiens, WM 266-4, 72 h
# [15] = molecular target: T10, BRSK2 (Homo sapiens, UniProt Q8IWQ3); experiment: KINOMEscan panel screen; format: binding; conditions: read-out: Percent Control(%)
# T10 construct: purchased DiscoveRx KINOMEscan (Ambit Biosciences)
# [16] = molecular target: T11, PIK3CA(E545A) (Homo sapiens, UniProt P42336, E545A); experiment: KINOMEscan panel screen; format: binding; conditions: read-out: Percent Control(%)
# T11 construct: purchased DiscoveRx KINOMEscan (Ambit Biosciences)
# [17] = molecular target: T12, RIPK5 (Homo sapiens, UniProt Q6XUX3); experiment: KINOMEscan panel screen; format: binding; conditions: read-out: Percent Control(%)
# T12 construct: purchased DiscoveRx KINOMEscan (Ambit Biosciences)
# [18] = molecular target: T13, PDGFRB (Homo sapiens, UniProt P09619); experiment: KINOMEscan panel screen; format: binding; conditions: read-out: Percent Control(%)
# T13 construct: purchased DiscoveRx KINOMEscan (Ambit Biosciences)
# [19] = molecular target: T14, MLK1 (Homo sapiens, UniProt P80192); experiment: KINOMEscan panel screen; format: binding; conditions: read-out: Percent Control(%)
# T14 construct: purchased DiscoveRx KINOMEscan (Ambit Biosciences)
# [20] = molecular target: T15, GRK1 (Homo sapiens, UniProt Q15835); experiment: KINOMEscan panel screen; format: binding; conditions: read-out: Percent Control(%)
# T15 construct: purchased DiscoveRx KINOMEscan (Ambit Biosciences)
# [21] = molecular target: T16, AXL (Homo sapiens, UniProt P30530); experiment: KINOMEscan panel screen; format: binding; conditions: read-out: Percent Control(%)
# T16 construct: purchased DiscoveRx KINOMEscan (Ambit Biosciences)
# [22] = molecular target: T17, BIKE (Homo sapiens, UniProt Q9NSY1); experiment: KINOMEscan panel screen; format: binding; conditions: read-out: Percent Control(%)
# T17 construct: purchased DiscoveRx KINOMEscan (Ambit Biosciences)
# T17 sequence (Q9NSY1 whole entry): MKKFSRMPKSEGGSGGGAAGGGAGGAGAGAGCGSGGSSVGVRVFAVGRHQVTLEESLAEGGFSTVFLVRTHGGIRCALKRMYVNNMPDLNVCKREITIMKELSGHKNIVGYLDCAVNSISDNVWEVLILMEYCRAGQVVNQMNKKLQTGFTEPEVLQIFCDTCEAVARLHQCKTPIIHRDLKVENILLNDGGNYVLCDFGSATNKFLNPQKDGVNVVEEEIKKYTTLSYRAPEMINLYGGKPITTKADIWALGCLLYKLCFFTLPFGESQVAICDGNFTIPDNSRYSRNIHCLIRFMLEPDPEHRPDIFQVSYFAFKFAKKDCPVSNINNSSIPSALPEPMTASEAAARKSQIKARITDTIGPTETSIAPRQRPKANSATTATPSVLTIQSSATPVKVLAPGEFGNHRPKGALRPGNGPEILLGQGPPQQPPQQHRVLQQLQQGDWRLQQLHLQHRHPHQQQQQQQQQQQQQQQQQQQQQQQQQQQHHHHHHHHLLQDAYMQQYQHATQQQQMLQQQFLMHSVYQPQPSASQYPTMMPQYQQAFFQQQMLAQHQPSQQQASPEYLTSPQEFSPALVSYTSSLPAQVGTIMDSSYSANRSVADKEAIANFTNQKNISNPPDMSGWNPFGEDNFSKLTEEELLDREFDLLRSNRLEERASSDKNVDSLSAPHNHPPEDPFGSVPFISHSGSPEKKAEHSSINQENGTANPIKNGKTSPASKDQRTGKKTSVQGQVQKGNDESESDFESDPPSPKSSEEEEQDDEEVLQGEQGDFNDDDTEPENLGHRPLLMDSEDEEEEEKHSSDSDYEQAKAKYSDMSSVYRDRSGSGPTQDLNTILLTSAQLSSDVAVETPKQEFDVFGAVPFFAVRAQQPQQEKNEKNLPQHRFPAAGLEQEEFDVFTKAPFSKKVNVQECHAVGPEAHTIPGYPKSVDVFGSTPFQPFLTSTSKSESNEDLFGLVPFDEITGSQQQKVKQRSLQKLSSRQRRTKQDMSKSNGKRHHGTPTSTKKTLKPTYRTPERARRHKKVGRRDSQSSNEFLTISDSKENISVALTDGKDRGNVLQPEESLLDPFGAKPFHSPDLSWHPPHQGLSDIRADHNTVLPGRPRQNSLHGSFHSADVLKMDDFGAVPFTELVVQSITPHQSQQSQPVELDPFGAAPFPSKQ
# [23] = molecular target: T18, EGFR(L747-S752del, P753S) (Homo sapiens, UniProt P00533, DEL747-752/P753S); experiment: KINOMEscan panel screen; format: binding; conditions: read-out: Percent Control(%)
# T18 construct: purchased DiscoveRx KINOMEscan (Ambit Biosciences)
# T18 sequence (P00533 with tags, fused parts or gaps DEL747-752/P753S limits assumed): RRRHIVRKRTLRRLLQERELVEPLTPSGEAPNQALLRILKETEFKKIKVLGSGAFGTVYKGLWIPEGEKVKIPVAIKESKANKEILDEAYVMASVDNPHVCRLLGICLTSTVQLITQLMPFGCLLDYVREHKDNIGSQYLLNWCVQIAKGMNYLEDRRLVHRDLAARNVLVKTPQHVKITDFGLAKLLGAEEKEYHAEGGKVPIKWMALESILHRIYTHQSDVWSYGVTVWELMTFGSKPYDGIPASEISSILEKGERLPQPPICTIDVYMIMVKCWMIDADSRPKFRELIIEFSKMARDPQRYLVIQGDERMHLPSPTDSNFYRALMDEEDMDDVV
# [24] = molecular target: T19, HUNK (Homo sapiens, UniProt P57058); experiment: KINOMEscan panel screen; format: binding; conditions: read-out: Percent Control(%)
# T19 construct: purchased DiscoveRx KINOMEscan (Ambit Biosciences)
# [25] = molecular target: T20, KIT-autoinhibited (Homo sapiens, UniProt P10721); experiment: KINOMEscan panel screen; format: binding; conditions: read-out: Percent Control(%)
# T20 construct: purchased DiscoveRx KINOMEscan (Ambit Biosciences)
# [26] = molecular target: T21, EGFR(L858R,T790M) (Homo sapiens, UniProt P00533, L858R/T790M); experiment: KINOMEscan panel screen; format: binding; conditions: read-out: Percent Control(%)
# T21 construct: purchased DiscoveRx KINOMEscan (Ambit Biosciences)
# [27] = molecular target: T22, IRAK3 (Homo sapiens, UniProt Q9Y616); experiment: KINOMEscan panel screen; format: binding; conditions: read-out: Percent Control(%)
# T22 construct: purchased DiscoveRx KINOMEscan (Ambit Biosciences)
# [28] = molecular target: T23, MAP3K2 (Homo sapiens, UniProt Q9Y2U5); experiment: KINOMEscan panel screen; format: binding; conditions: read-out: Percent Control(%)
# T23 construct: purchased DiscoveRx KINOMEscan (Ambit Biosciences)
# [29] = molecular target: T24, PIP5K1C (Homo sapiens, UniProt O60331); experiment: KINOMEscan panel screen; format: binding; conditions: read-out: Percent Control(%)
# T24 construct: purchased DiscoveRx KINOMEscan (Ambit Biosciences)
# [30] = tested on: PC-9; experiment: MTT cell viability assay; conditions: Homo sapiens, PC-9, 72 h
# [31] = molecular target: T25, KIT (Homo sapiens, UniProt P10721); experiment: KINOMEscan kinase binding assay (Kd)
# T25 construct: DNA tag (qPCR read-out); purchased Ambit Biosciences (KINOMEscan service)
# [32] = molecular target: T26, PRKCI (Homo sapiens, UniProt P41743); experiment: KINOMEscan panel screen; format: binding; conditions: read-out: Percent Control(%)
# T26 construct: purchased DiscoveRx KINOMEscan (Ambit Biosciences)
# [33] = molecular target: T27, PCTK1 (Homo sapiens, UniProt Q00536); experiment: KINOMEscan panel screen; format: binding; conditions: read-out: Percent Control(%)
# T27 construct: purchased DiscoveRx KINOMEscan (Ambit Biosciences)
# [34] = molecular target: T28, PDGFRα (Homo sapiens, UniProt P16234); experiment: KINOMEscan kinase binding assay (Kd)
# T28 construct: purchased Ambit Biosciences (KINOMEscan)
# [35] = molecular target: T29, TNNI3K (Homo sapiens, UniProt Q59H18); experiment: KINOMEscan panel screen; format: binding; conditions: read-out: Percent Control(%)
# T29 construct: purchased DiscoveRx KINOMEscan (Ambit Biosciences)
# [36] = molecular target: T30, SGK3 (Homo sapiens, UniProt Q96BR1); experiment: KINOMEscan panel screen; format: binding; conditions: read-out: Percent Control(%)
# T30 construct: purchased DiscoveRx KINOMEscan (Ambit Biosciences)
# [37] = molecular target: T31, EPHA1 (Homo sapiens, UniProt P21709); experiment: KINOMEscan panel screen; format: binding; conditions: read-out: Percent Control(%)
# T31 construct: purchased DiscoveRx KINOMEscan (Ambit Biosciences)
# [38] = molecular target: T32, MAP3K4 (Homo sapiens, UniProt Q9Y6R4); experiment: KINOMEscan panel screen; format: binding; conditions: read-out: Percent Control(%)
# T32 construct: purchased DiscoveRx KINOMEscan (Ambit Biosciences)
# [39] = molecular target: T33, JAK3(JH1domain-catalytic) (Homo sapiens, UniProt P52333); experiment: KINOMEscan panel screen; format: binding; conditions: read-out: Percent Control(%)
# T33 construct: JAK3(JH1domain-catalytic); purchased DiscoveRx KINOMEscan (Ambit Biosciences)
# T33 sequence (P52333 822-1111 limits assumed): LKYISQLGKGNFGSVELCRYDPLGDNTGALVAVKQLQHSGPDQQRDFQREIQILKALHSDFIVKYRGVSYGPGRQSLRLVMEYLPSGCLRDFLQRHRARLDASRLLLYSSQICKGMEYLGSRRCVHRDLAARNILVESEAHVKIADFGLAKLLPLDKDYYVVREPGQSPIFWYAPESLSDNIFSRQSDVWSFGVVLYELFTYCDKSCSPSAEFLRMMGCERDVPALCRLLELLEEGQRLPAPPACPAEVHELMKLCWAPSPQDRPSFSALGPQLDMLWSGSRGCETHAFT
# [40] = molecular target: T34, MET (Homo sapiens, UniProt P08581); experiment: KINOMEscan panel screen; format: binding; conditions: read-out: Percent Control(%)
# T34 construct: purchased DiscoveRx KINOMEscan (Ambit Biosciences)
# T34 sequence (P08581 25-1390): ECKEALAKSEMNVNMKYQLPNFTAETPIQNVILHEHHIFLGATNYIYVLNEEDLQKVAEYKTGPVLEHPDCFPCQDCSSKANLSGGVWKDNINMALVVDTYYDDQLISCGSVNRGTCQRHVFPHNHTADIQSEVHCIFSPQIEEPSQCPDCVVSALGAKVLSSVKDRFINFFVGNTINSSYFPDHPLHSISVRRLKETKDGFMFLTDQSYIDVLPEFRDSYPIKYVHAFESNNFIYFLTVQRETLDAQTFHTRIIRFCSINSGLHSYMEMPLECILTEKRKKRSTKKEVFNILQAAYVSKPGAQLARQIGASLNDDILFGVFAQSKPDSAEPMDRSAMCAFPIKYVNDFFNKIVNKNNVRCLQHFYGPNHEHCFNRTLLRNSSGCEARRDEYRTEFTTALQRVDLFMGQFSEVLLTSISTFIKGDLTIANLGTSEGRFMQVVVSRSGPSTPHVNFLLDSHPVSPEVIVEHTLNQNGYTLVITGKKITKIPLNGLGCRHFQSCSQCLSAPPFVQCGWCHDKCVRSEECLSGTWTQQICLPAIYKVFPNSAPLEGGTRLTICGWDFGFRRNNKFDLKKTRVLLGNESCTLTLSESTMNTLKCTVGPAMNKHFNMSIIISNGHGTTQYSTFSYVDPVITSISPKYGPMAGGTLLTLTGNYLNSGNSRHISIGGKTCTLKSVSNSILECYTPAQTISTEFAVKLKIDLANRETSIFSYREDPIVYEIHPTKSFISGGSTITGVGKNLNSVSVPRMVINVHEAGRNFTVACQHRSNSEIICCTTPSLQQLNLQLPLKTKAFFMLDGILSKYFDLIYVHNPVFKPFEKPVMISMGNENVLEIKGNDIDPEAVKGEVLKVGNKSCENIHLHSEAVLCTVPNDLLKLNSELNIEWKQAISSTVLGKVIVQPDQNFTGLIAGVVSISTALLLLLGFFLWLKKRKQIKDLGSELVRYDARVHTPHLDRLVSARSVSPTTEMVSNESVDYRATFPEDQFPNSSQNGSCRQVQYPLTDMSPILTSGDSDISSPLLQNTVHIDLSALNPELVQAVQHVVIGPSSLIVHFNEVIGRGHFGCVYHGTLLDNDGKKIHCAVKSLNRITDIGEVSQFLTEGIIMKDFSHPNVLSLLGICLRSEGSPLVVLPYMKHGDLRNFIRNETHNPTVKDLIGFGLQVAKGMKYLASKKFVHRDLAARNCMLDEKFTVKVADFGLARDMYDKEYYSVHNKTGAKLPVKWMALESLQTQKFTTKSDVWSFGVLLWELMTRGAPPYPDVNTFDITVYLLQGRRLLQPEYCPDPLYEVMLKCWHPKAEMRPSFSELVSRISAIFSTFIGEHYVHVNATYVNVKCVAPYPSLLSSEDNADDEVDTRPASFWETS
# [41] = molecular target: T35, PDGFRA (Homo sapiens, UniProt P16234); experiment: KINOMEscan panel screen; format: binding; conditions: read-out: Percent Control(%)
# T35 construct: purchased DiscoveRx KINOMEscan (Ambit Biosciences)
structure (smiles),measurement,setting,value
"O=C(Nc1ccc(Oc2ncnc3[nH]ncc23)cc1)Nc1ccc(Cl)c(C(F)(F)F)c1 [Compound 1, 1-(4-(1H-pyrazolo[3,4-d]pyrimidin-4-yloxy)phenyl)-3-(4-chloro-3-(trifluoromethyl)phenyl)urea]",IC50,[1],0.039 µM
same,IC50,[2],> 10 µM
same,IC50,[3],> 10 µM
"CC(C)(C)c1cc(NC(=O)Nc2ccc(Oc3ncnc4[nH]ncc34)c(F)c2)no1 [SKLB-677, 1-(4-(1H-pyrazolo[3,4-d]pyrimidin-4-yloxy)-3-fluorophenyl)-3-(5-tert-butylisoxazol-3-yl)urea]",remaining binding at 10 µM,[4],0%
same,remaining binding at 10 µM,[5],97%
same,remaining binding at 10 µM,[6],2.2%
same,remaining binding at 10 µM,[7],6.4%
same,IC50,[8],> 10 µM
same,remaining binding at 10 µM,[9],0%
same,remaining binding at 10 µM,[10],1.9%
same,remaining binding at 10 µM,[11],4.8%
same,remaining binding at 10 µM,[12],66%
same,Kd,[13],0.0013 µM
same,IC50,[14],> 10 µM
same,remaining binding at 10 µM,[15],76%
same,remaining binding at 10 µM,[16],86%
same,remaining binding at 10 µM,[17],98%
same,remaining binding at 10 µM,[18],0%
same,remaining binding at 10 µM,[19],42%
same,remaining binding at 10 µM,[20],97%
same,remaining binding at 10 µM,[21],3.8%
same,remaining binding at 10 µM,[22],89%
same,remaining binding at 10 µM,[23],38%
same,remaining binding at 10 µM,[24],80%
same,remaining binding at 10 µM,[25],1.1%
same,remaining binding at 10 µM,[26],75%
same,remaining binding at 10 µM,[27],52%
same,remaining binding at 10 µM,[28],100%
same,remaining binding at 10 µM,[29],51%
same,IC50,[30],8.03 µM
same,Kd,[31],0.0031 µM
same,remaining binding at 10 µM,[32],79%
same,remaining binding at 10 µM,[33],0.2%
same,Kd,[34],0.012 µM
same,remaining binding at 10 µM,[35],0%
same,remaining binding at 10 µM,[36],46%
same,remaining binding at 10 µM,[37],9.2%
same,remaining binding at 10 µM,[38],69%
same,remaining binding at 10 µM,[39],14%
same,remaining binding at 10 µM,[40],0.05%
same,remaining binding at 10 µM,[41],0.25%
